Assay results taken from US20100105705A1, “PURINYL DERIVATIVES AND THEIR USE AS POTASSIUM CHANNEL MODULATORS” (NeuroSearch A/S, priority 2007, published 2010).

Legend:
[1] = biological target: T1, hSK3 channels (Homo sapiens, UniProt Q9UGI6); assay: Whole-cell patch-clamp recording of ionic current through SK channels, subtype 3, in HEK293 cells expressing hSK3; type: cell-based
T1 construct: expressed in transfected cells; host or cells: HEK293
Protocol: The ionic current through small-conductance Ca^2+-activated K^+ channels (SK channels, subtype 3) is recorded using the whole-cell configuration of the patch-clamp technique in a classic patch-clamp set-up using HEK293 tissue culture cells expressing hSK3 channels as described in e.g. WO 2006/100212.
The SC100 value determined is defined as the Stimulating Concentration required for increasing the baseline current by 100%. The below SC100 values are an indication of the SK3 activating properties of the compounds of the invention.

| SC100 (Stimulating Concentration required for increasing the baseline current by 100%) [1] [µM] | melting point [°C] | Compound |
| --- | --- | --- |
| 0.02 |  | Cc1ccn(-c2nc(Nc3ccc(F)cc3)c3ncn(C)c3n2)n1 [Compound 6.6, (4-Fluoro-phenyl)-[9-methyl-2-(3-methyl-pyrazol-1-yl)-9H-purin-6-yl]-amine] |
|  | 185.4 to 190.5 | Cn1cnc2c(Nc3ccc(Cl)cc3)nc(-c3ccccn3)nc21 [Compound 13.1, (4-Chloro-phenyl)-(9-methyl-2-pyridin-2-yl-9H-purin-6-yl)-amine] |
| 0.02 |  | Cc1ccn(-c2nc(Nc3ccc(Cl)cc3)c3ncn(C)c3n2)n1 [Compound 9.1, (4-Chloro-phenyl)-[9-methyl-2-(3-methyl-pyrazol-1-yl)-9H-purin-6-yl]-amine] |
| 0.18 |  | Cn1cnc2c(Nc3ccc(Cl)cc3)nc(-n3cccn3)nc21 [Compound 6.2, (4-Chloro-phenyl)-(9-methyl-2-pyrazol-1-yl-9H-purin-6-yl)-amine] |
| 0.15 |  | Cc1c2c(nn1-c1nc(Nc3ccc(F)cc3)c3ncn(C)c3n1)CCC2 [Compound 9.5, (4-Fluoro-phenyl)-[9-methyl-2-(3-methyl-5,6-dihydro-4H-cyclopentapyrazol-2-yl)-9H-purin-6-yl]-amine] |
| 0.6 |  | Cc1ccn(-c2nc(NCCc3ccccc3)c3ncn(C)c3n2)n1 [Compound 9.3, [9-Methyl-2-(3-methyl-pyrazol-1-yl)-9H-purin-6-yl]-phenethyl-amine] |
| 0.6 |  | Cn1cnc2c(Nc3ccc(Cl)cc3)nc(-n3ccc(N)n3)nc21 [Compound 7.1, [2-(3-Amino-pyrazol-1-yl)-9-methyl-9H-purin-6-yl]-(4-chloro-phenyl)-amine] |
| 0.3 |  | Cn1cnc2c(Nc3ccc(Cl)cc3)nc(-n3ccc(C(F)(F)F)n3)nc21 [Compound 6.1, (4-Chloro-phenyl)-[9-methyl-2-(3-trifluoromethyl-pyrazol-1-yl)-9H-purin-6-yl]-amine] |
| 0.7 |  | Cn1cnc2c(NC3CCCCC3)nc(-n3cccn3)nc21 [Compound 6.3, Cyclohexyl-(9-methyl-2-pyrazol-1-yl-9H-purin-6-yl)-amine] |
